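Cells were grown in 96-well plates and exposed to each compound for 48 hours at five concentrations; endpoints were interpolated linearly between bracketing concentrations, or set to the highest concentration if not reached. At the GI50, growth is halved.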 The source made the active and inactive calls. Cut-off read from the data, not from the text of the source: active = GI50 up to about 1.1 µM and inactive = higher.
Experiments:
Assay in all cases: NCI-60 cell line screen, 48 h
NCI-H226 = tested on: NCI-H226
LOX IMVI = tested on: LOX IMVI
PC-3 = tested on: PC-3
SK-MEL-5 = tested on: SK-MEL-5
OVCAR-4 = tested on: OVCAR-4
HL-60 = tested on: HL-60
EKVX = tested on: EKVX
SNB-19 = tested on: SNB-19
SNB-75 = tested on: SNB-75
Hs-578T = tested on: Hs-578T
CAKI-1 = tested on: CAKI-1
HT-29 = tested on: HT-29
BT-549 = tested on: BT-549
KM12 = tested on: KM12
SN12C = tested on: SN12C
ACHN = tested on: ACHN
HCT-15 = tested on: HCT-15
OVCAR-8 = tested on: OVCAR-8
SF-295 = tested on: SF-295
HOP-18 = tested on: HOP-18

| SMILES | GI50 (NCI-H226) | GI50 (LOX IMVI) | GI50 (PC-3) | GI50 (SK-MEL-5) | GI50 (OVCAR-4) | GI50 (HL-60) | GI50 (EKVX) | GI50 (SNB-19) | GI50 (SNB-75) | GI50 (Hs-578T) | GI50 (CAKI-1) | GI50 (HT-29) | GI50 (BT-549) | GI50 (KM12) | GI50 (SN12C) | GI50 (ACHN) | GI50 (HCT-15) | GI50 (OVCAR-8) | GI50 (SF-295) | GI50 (HOP-18) |
| --- | --- | --- | --- | --- | --- | --- | --- | --- | --- | --- | --- | --- | --- | --- | --- | --- | --- | --- | --- | --- |
| COC1CC(OC2C(C)OC(OC3C(C)OC(OC4C(C)OC(O[C@H]5CC[C@@]6(C)C(=CC[C@]7(O)[C@@H]6C[C@@H](O)[C@@]6(C)[C@]7(O)CC[C@@]6(O)C(C)=O)C5)CC4OC)CC3OC)CC2OC)OC(C)C1O (stereo partly drawn) | > 12.5 µM (inactive) | > 12.5 µM (inactive) | > 12.5 µM (inactive) | > 12.5 µM (inactive) | > 12.5 µM (inactive) | > 12.5 µM (inactive) | > 12.5 µM (inactive) | > 12.5 µM (inactive) | > 12.5 µM (inactive) | > 12.5 µM (inactive) | > 12.5 µM (inactive) | > 12.5 µM (inactive) | > 12.5 µM (inactive) | > 12.5 µM (inactive) | > 12.5 µM (inactive) | > 12.5 µM (inactive) | > 12.5 µM | > 12.5 µM (inactive) | > 12.5 µM (inactive) |  |
| Cc1nc(=O)[nH]c2[nH][nH]c(=O)c12 | > 100 µM (inactive) | > 100 µM (inactive) |  |  | > 100 µM (inactive) | > 100 µM (inactive) | > 100 µM (inactive) |  |  |  | > 100 µM (inactive) | > 100 µM (inactive) |  | > 100 µM (inactive) | > 100 µM (inactive) | > 100 µM (inactive) | > 100 µM | > 100 µM (inactive) | > 100 µM (inactive) | > 100 µM (inactive) |
| CCC1(CC)N=C(C(F)(F)F)c2cc(C(=O)C(F)(F)F)c3ccccc3c2N1 | 6.5 µM (inactive) | 3.64 µM (inactive) | 3.3 µM (inactive) | 1.77 µM (inactive) | 4.57 µM (inactive) | 2.95 µM (inactive) | 10.2 µM (inactive) | 5.15 µM (inactive) | 4.2 µM (inactive) | 5.83 µM (inactive) | 3.99 µM (inactive) | 3.7 µM (inactive) | 5.87 µM (inactive) | 3.99 µM (inactive) | 3.41 µM (inactive) | 4.3 µM (inactive) | 4.22 µM | 3.66 µM (inactive) | 3.14 µM (inactive) |  |
| O=C1NC2(CCCC2)C(=O)C12CCCC2 |  | > 100 µM (inactive) |  | > 100 µM (inactive) | > 100 µM (inactive) | > 100 µM (inactive) | > 100 µM (inactive) | > 100 µM (inactive) | > 100 µM (inactive) |  | > 100 µM (inactive) | > 100 µM (inactive) |  | > 100 µM (inactive) | > 100 µM (inactive) | > 100 µM (inactive) | > 100 µM | > 100 µM (inactive) | > 100 µM (inactive) | > 100 µM (inactive) |

From ChEMBL document CHEMBL1201862, “PubChem BioAssay data set” (2004)
